# Experimental data reported in US12252457B2, “Compositions and methods for reducing tactile dysfunction, anxiety, and social impairment” (President and Fellows of Harvard College, priority 2018, dated 2025).
# Values joined by “and” are separate entries in the source; they are usually repeats but may differ in a detail not shown here. Equal entries are not always repeated. “Also recorded” adds a separate entry of the source. Structures can show the parent of a compound that is named as a salt.
# Legend:
# [1] = test system: SNL rats; assay: Rat spinal nerve ligation (SNL) model of neuropathic pain, Von Frey 50% paw withdrawal threshold; type: in vivo, SD Rat; conditions: for 50% g Threshold, individual animals: 5 mg/kg; for neuropathic pain sensitivity / mechanical hypersensitivity (mechanical allodynia): SNL rats, Von Frey stimulation of hindpaw glabrous skin; for 50% g Threshold, group Mean: n=8
# Protocol: Chung surgery were conducted on anesthetized rats. Rats were habituated in the testing environment for 15 minutes before allodynia measurement (2-3 times). Pre-dose baseline were taken on day 9 post surgery. Rats that don't show allodynic response at this point were excluded. SNL rats with a paw withdrawal threshold >4 g. The animals were grouped according to 50% paw withdrawal threshold (g) and weight. The animals were dosed test articles and vehicle according to the dose protocol. On the testing day (Day 9), rats were dosed with testing articles with 16 min interval between groups. Rats were measured for allodynic response at 0.75, 1.5, 3 h time point post dosing. All values will be expressed as mean±S.E.M. The significance of the differences among groups will be evaluated by two-way ANOVA followed by Dunnett's test using graphpad Prism 6 software. A p value of less than 0.05 is considered statistically significant.
# [2] = test system: genetic and environmental mouse models of ASD; assay: Tactile PPI, air puff response and startle amplitude after acute midazolam or isoguvacine in ASD mouse models; type: in vivo
# Protocol: FIGS. 19A-19N show acute administration of the peripherally-restricted GABAA receptor agonist isoguvacine improves tactile hypersensitivity in five genetic and one environmental model of ASD. […] Two-way ANOVA with post-hoc Sidak's test, *, p<0.05. FIG. 19B: Response to a light air puff stimulus alone in mice following i.p. administration of either saline or 2 mg/kg midazolam treatment. Responses are expressed as percent of startle response to a 125 dB noise. Two-way ANOVA with post-hoc Sidak's test, *, p<0.05. FIG. 19C: Magnitude of startle response to a 125 dB noise in mice following i.p. administration of either saline or 2 mg/kg midazolam treatment. Responses are expressed as percent of startle response to a 125 dB noise. Two-way ANOVA with post-hoc Sidak's test, *, p<0.05. FIG. 19D: Magnitude of startle response to a 125 dB noise in mice following i.p. administration of saline, midazolam (2 mg/kg) or a peripherally-restricted GABAA receptor agonist, isoguvacine (2 mg/kg). Responses are expressed as percent of startle response to a 125 dB noise. Two-way ANOVA with post-hoc Sidak's test, *, p<0.05. FIGS. 19E-19G: Liquid chromatography mass spectrometry (LC-MS) quantified isoguvacine concentrations in cerebrospinal fluid (CSF) (FIG. 19E), blood (FIG. 19F) or liver (FIG. 19G) samples of mice treated with: i.p. saline, i.p. isoguvacine (“Iso.”, 20 mg/kg, samples collected 1, 3 or 24 hours post-injection), intracerebral injection isoguvacine (20 mg/kg, 1 hour post-injection), i.p. diazepam (“DZ”, 20 mg/kg, 1 hour post injection) or intracerebral injection diazepam (20 mg/kg, 1 hour post injection). FIG. 19H: Normalized peak chloride flux through α1β3γ2- and α2β3γ2-containing GABAA receptors in response to isoguvacine application. […] FIGS. 19I-19K: GABAA receptor subunit RNA expression levels across peripheral somatosensory neuron subtypes, for the alpha (FIG. 19I), beta (FIG. 19J), and gamma (FIG. 19K) subunit types. […] Two-way ANOVA with post-hoc Sidak's test, *, p<0.05. FIG. 19M: Response to a light air puff stimulus alone in mice following i.p. administration of either saline or 2 mg/kg isoguvacine treatment. Responses are expressed as percent of startle response to a 125 dB noise. Two-way ANOVA with post-hoc Sidak's test, *, p<0.05. FIG. 19N: Magnitude of startle response to a 125 dB noise in mice following i.p. administration of either saline or 2 mg/kg isoguvacine treatment. Responses are expressed as percent of startle response to a 125 dB noise. Two-way ANOVA with post-hoc Sidak's test, *, p<0.05.
# Results of the GABAA receptor restoration experiments raised the possibility that pharmacological treatment with a GABAA receptor agonist may improve tactile reactivity in Mecp2 mutant mice. It was therefore tested whether benzodiazepines, which are positive allosteric modulators (PAMs) of GABAA receptors, would attenuate hairy skin hypersensitivity in Mecp2 mutant mice. Advillin^Cre; Mecp2^f/y mutant mice and their control littermates were administered either vehicle alone or the benzodiazepine midazolam (2 mg/kg, i.p.) in a pseudorandomized manner, and then subjected to tactile PPI. On the following day, treatment regimens were reversed, and tactile PPI was repeated.
# While traditional blood-brain barrier (BBB) penetrating benzodiazepines and non-benzodiazepine GABAA receptor PAMs are useful for treating some ASD-related symptoms in patients, including acute anxiety, significant adverse effects including sedation and addictive potential are common (Gudex, 1991). Furthermore, long-term benzodiazepine use is linked to cognitive impairment across multiple domains, including short-term verbal memory and attention (Golombok et al., 1988; Tata et al., 1994), leading to general reluctance within the medical community for prescribing benzodiazepines and other GABAA receptor PAMs to young children (Howes et al., 2018). […]
# [3] = 0 Hour (pre-dose baseline), 5 mpk IP
# [4] = printed in the 0.75 Hour column, 5 mpk IP
# [5] = printed in the 1.5 Hour column, 5 mpk IP
# [6] = printed in the 3 Hour column, 5 mpk IP
smiles,measurement,setting,value
"NC1C=C(C(=O)O)CCC1 (stereo not shown) [Compound 5, 3-aminocyclohex-1-enecarboxylic acid hydrochloride]",Von frey test (MEAN ± S.E.M.),[1]; [3],2.3 ± 0.34 g
same,"50% g Threshold, individual animals","[1]; 0 Hour (pre-dose baseline, day 9 post surgery), 5 mpk IP, hydrochloride",0.99 g and 1.10 g and 1.56 g and 2.64 g and 2.81 g (2×) and 3.31 g (2×)
same,"50% g Threshold, individual animals","[1]; 0.75 Hour post dosing, 5 mpk IP, hydrochloride",3.33 g and 4.12 g and 2.81 g and 1.85 g and 4.34 g and 3.31 g and 2.37 g and 6.74 g
same,Von frey test (MEAN ± S.E.M.),"[1]; 0.75 Hour, 5 mpk IP",3.6 ± 0.54 g
same,"50% g Threshold, individual animals","[1]; 1.5 Hour post dosing, 5 mpk IP, hydrochloride",6.74 g (2×) and 5.10 g and 1.85 g and 3.71 g (2×) and 3.31 g and 1.56 g
same,Von frey test (MEAN ± S.E.M.),"[1]; 1.5 Hour, 5 mpk IP",4.1 ± 0.70 g
same,"50% g Threshold, individual animals","[1]; 3 Hour post dosing, 5 mpk IP, hydrochloride",6.42 g and 3.33 g and 2.81 g and 2.61 g and 3.71 g and 4.34 g and 0.82 g and 7.91 g
same,Von frey test (MEAN ± S.E.M.),"[1]; 3 Hour, 5 mpk IP",4.0 ± 0.79 g
same,neuropathic pain sensitivity / mechanical hypersensitivity (mechanical allodynia),[1]; hydrochloride,reduce tactile over-reactivity (mechanical allodynia)
same,neuropathic pain sensitivity / mechanical hypersensitivity (mechanical allodynia),"[1]; listed as compound 5, hydrochloride",reduce neuropathic pain sensitivity
same,"50% g Threshold, group Mean",[1]; [4],2.31 g
same,"50% g Threshold, group Mean",[1]; [5],3.61 g
same,"50% g Threshold, group Mean",[1]; [6],4.09 g
"O=C(O)C1=CCNCC1 [Isoguvacine, isoguvacine]",Von frey test (MEAN ± S.E.M.),[1]; [3],2.3 ± 0.33 g
same,"50% g Threshold, individual animals","[1]; 0 Hour (pre-dose baseline, day 9 post surgery), 5 mpk IP",0.99 g and 1.10 g and 1.85 g and 2.23 g and 2.81 g and 3.00 g and 3.31 g (2×)
same,"50% g Threshold, individual animals","[1]; 0.75 Hour post dosing, 5 mpk IP",1.31 g (2×) and 2.37 g (2×) and 2.81 g and 1.56 g (2×) and 0.99 g
same,Von frey test (MEAN ± S.E.M.),"[1]; 0.75 Hour, 5 mpk IP",1.8 ± 0.23 g
same,"50% g Threshold, individual animals","[1]; 1.5 Hour post dosing, 5 mpk IP",1.85 g (3×) and 2.37 g and 0.82 g and 2.81 g and 1.56 g and 2.64 g
same,Von frey test (MEAN ± S.E.M.),"[1]; 1.5 Hour, 5 mpk IP",2.0 ± 0.23 g
same,"50% g Threshold, individual animals","[1]; 3 Hour post dosing, 5 mpk IP",2.81 g and 6.74 g and 7.91 g and 3.33 g and 5.15 g and 4.34 g and 5.77 g and 3.31 g
same,Von frey test (MEAN ± S.E.M.),"[1]; 3 Hour, 5 mpk IP",4.9 ± 0.64 g
same,analgesia effect,"[1]; 3 hour time point, 5 mpk IP",significant analgesia effect
same,neuropathic pain sensitivity / mechanical hypersensitivity (mechanical allodynia),[1],reduce neuropathic pain sensitivity
same,neuropathic pain sensitivity / mechanical hypersensitivity (mechanical allodynia),[1]; listed as isoguvacine,reduce tactile over-reactivity (mechanical allodynia)
same,"50% g Threshold, group Mean",[1]; [4],2.32 g
same,"50% g Threshold, group Mean",[1]; [5],1.78 g
same,"50% g Threshold, group Mean",[1]; [6],1.97 g
same,hairy skin sensitivity (tactile PPI),"[2]; Advillin^Cre, Gabrb3^f/f mice (homozygous deletion), 2 mg/kg i.p.",no reduction in hairy skin sensitivity
same,tactile hypersensitivity (tactile PPI performance and responsivity to air puff),"[2]; Advillin^Cre, Mecp2^f/y and Advillin^Cre, Gabrb3^f/+ mutant mice, acute 2 mg/kg i.p.",significantly reduced tactile hypersensitivity; also recorded: improved tactile hypersensitivity
same,hairy skin hypersensitivity,"[2]; Shank3, Fmr1, and Cntnap2 mutant mice, acute 2 mg/kg i.p.",attenuated hairy skin hypersensitivity
same,hairy skin hypersensitivity,[2]; mice exposed to polyinosinic:polycytidylic acid at E12.5 (maternal immune activation model),improvement in hairy skin hypersensitivity
